Reference: PubChem BioAssay (NCI)
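Compound exposure: 48 hours, 5 concentrations, 96-well plates. At the TGI there is no net growth.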

Experiments:
Assay in all cases: inhibition of tumour cell growth, NCI panel, 48 h
DU-145 prostate = system: DU-145 prostate
CAKI-1 renal = system: CAKI-1 renal
786-0 renal = system: 786-0 renal
SF-539 CNS = system: SF-539 CNS
SNB-19 CNS = system: SNB-19 CNS
IGROV1 ovarian = system: IGROV1 ovarian
HT29 colon = system: HT29 colon
OVCAR-3 ovarian = system: OVCAR-3 ovarian
UACC-62 melanoma = system: UACC-62 melanoma
NCI-H522 lung = system: NCI-H522 lung
OVCAR-5 ovarian = system: OVCAR-5 ovarian
SK-MEL-5 melanoma = system: SK-MEL-5 melanoma
A498 renal = system: A498 renal
COLO 205 colon = system: COLO 205 colon
RXF 393 renal = system: RXF 393 renal
MDA-MB-231 breast = system: MDA-MB-231 breast
NCI-H23 lung = system: NCI-H23 lung
KM12 colon = system: KM12 colon
HCT-15 colon = system: HCT-15 colon
HOP-62 NSCLC = system: HOP-62 NSCLC
HL-60(TB) leukemia = system: HL-60(TB) leukemia
NCI-H226 lung = system: NCI-H226 lung
SF-295 CNS = system: SF-295 CNS
U251 CNS = system: U251 CNS
TK-10 renal = system: TK-10 renal
MCF7 breast = system: MCF7 breast
EKVX NSCLC = system: EKVX NSCLC
CCRF-CEM leukemia = system: CCRF-CEM leukemia
UACC-257 melanoma = system: UACC-257 melanoma
A549 NSCLC = system: A549 NSCLC
SNB-75 CNS = system: SNB-75 CNS
PC-3 prostate = system: PC-3 prostate
HOP-92 NSCLC = system: HOP-92 NSCLC
SF-268 CNS = system: SF-268 CNS
HCT-116 colon = system: HCT-116 colon
RPMI-8226 leukemia = system: RPMI-8226 leukemia
SK-OV-3 ovarian = system: SK-OV-3 ovarian
BT-549 breast = system: BT-549 breast
M14 melanoma = system: M14 melanoma
SW-620 colon = system: SW-620 colon
T-47D breast = system: T-47D breast
SN12C renal = system: SN12C renal
ACHN renal = system: ACHN renal
NCI-H460 lung = system: NCI-H460 lung
SK-MEL-2 melanoma = system: SK-MEL-2 melanoma
OVCAR-8 ovarian = system: OVCAR-8 ovarian
MALME-3M melanoma = system: MALME-3M melanoma
K-562 leukemia = system: K-562 leukemia
SK-MEL-28 melanoma = system: SK-MEL-28 melanoma
HCC-2998 colon = system: HCC-2998 colon
MDA-MB-435 = system: MDA-MB-435
LOX IMVI melanoma = system: LOX IMVI melanoma
NCI/ADR-RES ovarian = system: NCI/ADR-RES ovarian
HS 578T breast = system: HS 578T breast
SR leukemia = system: SR leukemia
MDA-N = system: MDA-N
UO-31 renal = system: UO-31 renal
MOLT-4 leukemia = system: MOLT-4 leukemia
OVCAR-4 ovarian = system: OVCAR-4 ovarian

Cc1cc(-c2nc3ccccc3s2)ccc1N
TGI (DU-145 prostate): > 100 µM | TGI (CAKI-1 renal): > 82.4 µM | TGI (786-0 renal): > 79.6 µM | TGI (SF-539 CNS): > 91.6 µM | TGI (SNB-19 CNS): > 100 µM | TGI (IGROV1 ovarian): > 100 µM | TGI (HT29 colon): > 87.3 µM | TGI (OVCAR-3 ovarian): > 86.6 µM | TGI (UACC-62 melanoma): > 74.3 µM | TGI (NCI-H522 lung): > 61.6 µM | TGI (OVCAR-5 ovarian): 70.6 µM | TGI (SK-MEL-5 melanoma): > 66.8 µM | TGI (A498 renal): > 94.5 µM | TGI (COLO 205 colon): > 76.9 µM | TGI (RXF 393 renal): 98.7 µM | TGI (MDA-MB-231 breast): > 88.2 µM | TGI (NCI-H23 lung): > 80.8 µM | TGI (KM12 colon): > 81.2 µM | TGI (HCT-15 colon): > 89.3 µM | TGI (HOP-62 NSCLC): > 100 µM | TGI (HL-60(TB) leukemia): > 90.3 µM | TGI (NCI-H226 lung): > 92 µM | TGI (SF-295 CNS): > 85.3 µM | TGI (U251 CNS): > 88.5 µM | TGI (TK-10 renal): > 100 µM | TGI (MCF7 breast): > 100 µM | TGI (EKVX NSCLC): > 95.3 µM | TGI (CCRF-CEM leukemia): > 100 µM | TGI (UACC-257 melanoma): > 100 µM | TGI (A549 NSCLC): > 100 µM | TGI (SNB-75 CNS): > 88.8 µM | TGI (PC-3 prostate): > 88.8 µM | TGI (HOP-92 NSCLC): > 100 µM | TGI (SF-268 CNS): > 83.8 µM | TGI (HCT-116 colon): > 78.7 µM | TGI (RPMI-8226 leukemia): > 100 µM | TGI (SK-OV-3 ovarian): > 100 µM | TGI (BT-549 breast): > 84.3 µM | TGI (M14 melanoma): > 73.5 µM | TGI (SW-620 colon): > 100 µM | TGI (T-47D breast): > 85.9 µM | TGI (SN12C renal): > 77.9 µM | TGI (ACHN renal): > 95.1 µM | TGI (NCI-H460 lung): > 71.7 µM | TGI (SK-MEL-2 melanoma): > 84 µM | TGI (OVCAR-8 ovarian): > 89.3 µM | TGI (MALME-3M melanoma): > 81.5 µM | TGI (K-562 leukemia): > 86 µM | TGI (SK-MEL-28 melanoma): > 100 µM | TGI (HCC-2998 colon): > 93 µM | TGI (MDA-MB-435): > 79.8 µM | TGI (LOX IMVI melanoma): > 78.5 µM | TGI (NCI/ADR-RES ovarian): > 87.6 µM | TGI (HS 578T breast): > 100 µM | TGI (SR leukemia): > 89.8 µM | TGI (MDA-N): > 83.6 µM | TGI (UO-31 renal): 88.3 µM | TGI (MOLT-4 leukemia): 82.2 µM | TGI (OVCAR-4 ovarian): > 84.1 µM

O=C(/C=C1\C[C@H]2C=Nc3ccccc3C(=O)N2C1)NCCCCNC(=O)/C=C1\C[C@H]2C=Nc3ccccc3C(=O)N2C1
TGI (DU-145 prostate): 29.7 µM | TGI (CAKI-1 renal): 6.4 µM | TGI (786-0 renal): 3.32 µM | TGI (SF-539 CNS): 30.5 µM | TGI (SNB-19 CNS): 31.8 µM | TGI (IGROV1 ovarian): 27.8 µM | TGI (HT29 colon): 31.4 µM | TGI (OVCAR-3 ovarian): 36.3 µM | TGI (UACC-62 melanoma): 29 µM | TGI (NCI-H522 lung): 3.57 µM | TGI (OVCAR-5 ovarian): 34.4 µM | TGI (SK-MEL-5 melanoma): 27.1 µM | TGI (A498 renal): 32.9 µM | TGI (COLO 205 colon): 14.8 µM | TGI (RXF 393 renal): 19.2 µM | TGI (MDA-MB-231 breast): 0.986 µM | TGI (NCI-H23 lung): 27 µM | TGI (KM12 colon): 33.3 µM | TGI (HCT-15 colon): 27.7 µM | TGI (HOP-62 NSCLC): 38.5 µM | TGI (HL-60(TB) leukemia): 12.6 µM | TGI (NCI-H226 lung): 59.5 µM | TGI (SF-295 CNS): 35.4 µM | TGI (U251 CNS): 11.3 µM | TGI (TK-10 renal): 23.8 µM | TGI (MCF7 breast): 35.1 µM | TGI (EKVX NSCLC): 33.7 µM | TGI (CCRF-CEM leukemia): 4.82 µM | TGI (UACC-257 melanoma): 27.1 µM | TGI (A549 NSCLC): 49.1 µM | TGI (SNB-75 CNS): 31.9 µM | TGI (PC-3 prostate): 27.7 µM | TGI (HOP-92 NSCLC): 20.4 µM | TGI (SF-268 CNS): 25 µM | TGI (HCT-116 colon): 25.9 µM | TGI (RPMI-8226 leukemia): 18.6 µM | TGI (SK-OV-3 ovarian): 34.4 µM | TGI (BT-549 breast): 26.1 µM | TGI (M14 melanoma): 19.5 µM | TGI (SW-620 colon): 7.58 µM | TGI (T-47D breast): 22.3 µM | TGI (SN12C renal): 11.4 µM | TGI (ACHN renal): 12.6 µM | TGI (NCI-H460 lung): 37.5 µM | TGI (SK-MEL-2 melanoma): 29.2 µM | TGI (OVCAR-8 ovarian): 9.76 µM | TGI (MALME-3M melanoma): 18 µM | TGI (K-562 leukemia): > 33.5 µM | TGI (SK-MEL-28 melanoma): 33.3 µM | TGI (HCC-2998 colon): 32.9 µM | TGI (MDA-MB-435): 21 µM | TGI (LOX IMVI melanoma): 6.35 µM | TGI (NCI/ADR-RES ovarian): 47.1 µM | TGI (HS 578T breast): > 88.7 µM | TGI (MDA-N): 24.3 µM | TGI (UO-31 renal): 5.77 µM | TGI (OVCAR-4 ovarian): 26.1 µM

O=C(/C=N/O)Nc1cc(Cl)c(Cl)cc1Cl
TGI (DU-145 prostate): > 100 µM | TGI (CAKI-1 renal): 79.8 µM | TGI (786-0 renal): > 100 µM | TGI (SF-539 CNS): > 100 µM | TGI (SNB-19 CNS): > 100 µM | TGI (IGROV1 ovarian): > 100 µM | TGI (HT29 colon): > 100 µM | TGI (OVCAR-3 ovarian): 79.5 µM | TGI (UACC-62 melanoma): 76.3 µM | TGI (NCI-H522 lung): 67.8 µM | TGI (OVCAR-5 ovarian): > 100 µM | TGI (SK-MEL-5 melanoma): 33 µM | TGI (A498 renal): 55.5 µM | TGI (COLO 205 colon): 87.4 µM | TGI (RXF 393 renal): 95.3 µM | TGI (MDA-MB-231 breast): 60 µM | TGI (NCI-H23 lung): 86.6 µM | TGI (KM12 colon): 84.3 µM | TGI (HCT-15 colon): > 100 µM | TGI (HOP-62 NSCLC): > 100 µM | TGI (HL-60(TB) leukemia): 53.8 µM | TGI (SF-295 CNS): 87.6 µM | TGI (U251 CNS): > 100 µM | TGI (TK-10 renal): > 100 µM | TGI (MCF7 breast): > 100 µM | TGI (EKVX NSCLC): 96.9 µM | TGI (CCRF-CEM leukemia): 91.9 µM | TGI (UACC-257 melanoma): 87.4 µM | TGI (A549 NSCLC): > 100 µM | TGI (SNB-75 CNS): 66.6 µM | TGI (PC-3 prostate): > 100 µM | TGI (HOP-92 NSCLC): > 100 µM | TGI (SF-268 CNS): > 100 µM | TGI (HCT-116 colon): 90.1 µM | TGI (RPMI-8226 leukemia): 88.8 µM | TGI (SK-OV-3 ovarian): > 100 µM | TGI (BT-549 breast): 89.3 µM | TGI (M14 melanoma): > 100 µM | TGI (SW-620 colon): > 100 µM | TGI (T-47D breast): 95.5 µM | TGI (SN12C renal): 94.3 µM | TGI (ACHN renal): > 100 µM | TGI (NCI-H460 lung): > 100 µM | TGI (SK-MEL-2 melanoma): 54.2 µM | TGI (OVCAR-8 ovarian): > 100 µM | TGI (MALME-3M melanoma): > 100 µM | TGI (K-562 leukemia): > 100 µM | TGI (SK-MEL-28 melanoma): > 100 µM | TGI (HCC-2998 colon): > 100 µM | TGI (MDA-MB-435): 67 µM | TGI (LOX IMVI melanoma): > 100 µM | TGI (NCI/ADR-RES ovarian): > 100 µM | TGI (HS 578T breast): 85.5 µM | TGI (MDA-N): > 100 µM | TGI (UO-31 renal): > 100 µM | TGI (MOLT-4 leukemia): 47.9 µM | TGI (OVCAR-4 ovarian): > 100 µM
